Columns and labels:
mTOR = mTOR signaling, phospho-array and immunoblot, HUVECs; format: cell-based, human
Description: Prior to performing signaling assays, cells were trypsinized, centrifuged, suspended in basal media, and counted using an automated hemocytometer. Cells were further diluted in basal media to an assay-dependent concentration. Cells were then incubated with gentle agitation for 60 minutes to prevent cell attachment and reduce basal signaling. PP1, Dynasore, MK-2206, and Rapamycin were diluted in DMSO and used in assay concentrations of 10 μM, 100 μM, 10 μM, and respectively, for the final 20-30 minutes of incubation in basal media. An equal volume of DMSO was used as the negative control condition. […] 1 μg Pearl 1 polyclonal antibody was added as a specific positive control. 20% growth media or 2% fetal bovine serum, labeled “Serum” in figures, was added as a non-specific positive control. The cells were centrifuged at 300G for 3 minutes with the exception of platelets, which were centrifuged at 500G for 5 minutes. The cells were then incubated at 37° C. for 8-45 minutes, depending on the cell type and pathway of interest. The cells were lysed in radioimmunoprecipitation buffer (RIPA) containing a cocktail of protease and phosphatase inhibitors and universal nuclease. Immunoblots were performed by standard techniques, as briefly follows. Protein content was determined using a bicinchoninic acid assay with BSA standards (#23225, Pierce BCA Protein Assay Kit). Cell lysates were then reduced with dithiothreitol (DTT) in lithium dodecyl sulfate (LDS) sample buffer (#NP0007, Invitrogen). Equal protein amounts were added to polyacrylamide gels (#4561086, BioRad) and electrophoresed prior to transferring to a nitrocellulose or polyvinylidene fluoride membrane (#1620260, BioRad). Membranes were blocked in 5% BSA/Tris-buffered saline (TBS) with 0.1% Tween 20 for 30 minutes. The indicated primary antibodies were incubated with the pre-blocked membranes overnight at 4° C. Membranes were washed with TBS with 0.1% Tween 20, probed with fluorescent secondary antibodies, and imaged. β-actin or β-tubulin served as a loading control. […]

AKT [1] = assay: AKT signaling immunoblot, hCASMCs; format: cell-based, human; conditions: relative to BSA controls
Description: (§1) Cellular reagents were purchased from various commercial vendors. Primary human umbilical vein endothelial cells (HUVECs) were obtained from Cell Applications Inc. and cultured according to the manufacture's recommendations. Primary human coronary artery smooth muscle cells were obtained from Invitrogen and were cultured according to the manufacture's recommendations. 293T cells were obtained from ATCC and were cultured according to the manufacture's recommendations. Mouse primary smooth muscle cells were obtained and cultured as described previously. Predesigned Silencer Select siRNA constructs targeting Pearl 1 and negative control siRNA were obtained from ThermoFisher. Transfections were performed using RNAiMAX or Lipofectamine 3000 transfection reagents according to the manufacturer's protocols. Cells were used for signaling assays 48 hours after transfection; efficient Pearl 1 knockdown or Pearl 1 overexpression was confirmed by immunoblot assays.
Prior to performing signaling assays, cells were trypsinized, centrifuged, suspended in basal media, and counted using an automated hemocytometer. Cells were further diluted in basal media to an assay-dependent concentration. […] Protein content was determined using a bicinchoninic acid assay with BSA standards (#23225, Pierce BCA Protein Assay Kit). […]

Human platelets = conditions: static conditions, with and without 0.1 U/mL thrombin
Description: Subsequently, coverslips were blocked with 1% BSA and washed with PBS. Human platelets were isolated from whole blood and re-suspended in Tyrode's buffer. 2×10^7/mL basal or thrombin activated platelets were added to coverslips and incubated at 37° C. for 10, 20, or 30 minutes. After incubation, non-adherent platelets were removed and the coverslips were washed with PBS, fixed with 1.5% paraformaldehyde, permeabilized with 0.01% Triton-X and stained with TRITC phalloidin. Platelets were visualized using fluorescent microscopy. Images of the adhered platelets were captured using fluorescent microscopy and counted manually by a blinded observer.

[2] = test system: integrin signaling kinases; assay: Integrin signaling western blot, VSMCs; format: cell-based, mouse; conditions: VSMCs adherent to coated wells, relative to inert protein control
Description: Cells were resuspended in serum-free media (SFM) and incubated with gentle agitation to prevent cell attachment and reduce basal signaling. […] Cells were briefly centrifuged to the bottom of the wells and incubated for 8 min (for VSMCs) or 15 min (for THP-1 cells) before lysis with cell lysis buffer (#9803, Cell Signaling Technologies) containing a cocktail of protease and phosphatase inhibitors. Western blots were performed by standard techniques, as briefly follows. Protein content was determined using a bicinchoninic acid assay with BSA standards (#23225, Pierce™ BCA Protein Assay Kit). Cell lysates were then reduced with DTT in lithium dodecyl sulfate sample buffer (#NP0007, Invitrogen). Equal protein amounts were added to polyacrylamide gels (#4561086, BioRad) and electrophoresed prior to transferring to a nitrocellulose or polyvinylidene fluoride membrane (#1620260, BioRad). Membranes were blocked in 5% BSA/Tris-Buffered Saline with tween 20 for 30 min. The indicated primary antibodies were incubated with the pre-blocked membranes for overnight at 4° C. Membranes were washed with Tris-Buffered Saline with tween 20, probed with fluorescent secondary antibodies, and imaged. β-actin or β-tubulin served as a loading control.

VSMCs = assay: VSMC adhesion assay; format: cell-based, mouse; conditions: immobilized protein
Description: Plates were ultraviolet (UV) sterilized before adding cells. […] Efficient Itgα9 knockdown was confirmed by qPCR.

AKT [3] = conditions: BSA, N-terminal, C-terminal and full-length SVEP1
HUVECs = assay: HUVEC adhesion assay; format: cell-based, human; conditions: wells coated with increasing concentrations, 10 minutes
Description: Subsequently, wells were blocked with 100 mg/mL BSA and washed with DPBS. HUVECs were collected and resuspended in basal media. 5,000 cells were added to each well. Cells were centrifuged and incubated at 37° C. for 10 minutes. The plate was gently centrifuged upside down to remove non-adhered cells. Adhered cells were fixed with 4% paraformaldehyde, stained with 4′,6-diamidino-2-phenylindole (DAPI), and counted by automated microscopy as done previously.

Fibronectin = Fibronectin (Mus musculus, UniProt P11276); conditions: enriched VSMC media
Description: Affinity-based proteomics: Murine VSMCs were grown to confluence in serum-containing media and changed to serum-free media to generate enriched media. […] An aliquot was removed after incubation as the “input” fraction. Media was then added to a slurry of Pierce Anti-c-Myc Magnetic Beads+0.05% Tween 20 and incubated for 30 minutes while rocking at 4° C. The beads were then washed twice with Ca^2+ and Mg^2+-containing PBS (D8662, Sigma) +0.05% Tween 20 and twice with Ca^2+ and Mg^2+-containing PBS before a final resuspension in PBS. An aliquot of the beads was reserved as the pulldown fraction for validation. […] The samples were incubated for 4 hours prior to dialysis. Protease arrest (G-Biosciences) was added and excess biotin was dialyzed using a 10 kDa molecular weight cut-off (MWKO) Slide-A-Lyzer™ dialysis Cassette (ThermoFisher Scientific) in buffered saline+1 mM EDTA. The samples were then transferred to 10 kDa MWKO Vivasin column (Sartorius Stedim Biotech), centrifuged, resuspended in RIPA buffer, centrifuged, and added to pre-washed Pierce Streptavidin Magnetic Beads. The samples and beads were incubated for 1 hour at room temperature or overnight at 4° C. and then washed with the following solutions: RIPA buffer, 1M 732 KCl, 0.1M Na2CO3, 2M urea in 10 mM Tris HCl (pH=8.0), and PBS. The beads were then resuspended in PBS for peptide preparation.

AKT [4] = assay: AKT signaling immunoblot / phospho-array, HUVECs; format: cell-based, human
Description: as §1
Prior to performing signaling assays, cells were trypsinized, centrifuged, suspended in basal media, and counted using an automated hemocytometer. Cells were further diluted in basal media to an assay-dependent concentration. Cells were then incubated with gentle agitation for 60 minutes to prevent cell attachment and reduce basal signaling. PP1, Dynasore, MK-2206, and Rapamycin were diluted in DMSO and used in assay concentrations of 10 μM, 100 μM, 10 μM, and respectively, for the final 20-30 minutes of incubation in basal media. An equal volume of DMSO was used as the negative control condition. […] 1 μg Pearl 1 polyclonal antibody was added as a specific positive control. 20% growth media or 2% fetal bovine serum, labeled “Serum” in figures, was added as a non-specific positive control. The cells were centrifuged at 300G for 3 minutes with the exception of platelets, which were centrifuged at 500G for 5 minutes. The cells were then incubated at 37° C. for 8-45 minutes, depending on the cell type and pathway of interest. The cells were lysed in radioimmunoprecipitation buffer (RIPA) containing a cocktail of protease and phosphatase inhibitors and universal nuclease. Immunoblots were performed by standard techniques, as briefly follows. Protein content was determined using a bicinchoninic acid assay with BSA standards (#23225, Pierce BCA Protein Assay Kit). Cell lysates were then reduced with dithiothreitol (DTT) in lithium dodecyl sulfate (LDS) sample buffer (#NP0007, Invitrogen). Equal protein amounts were added to polyacrylamide gels (#4561086, BioRad) and electrophoresed prior to transferring to a nitrocellulose or polyvinylidene fluoride membrane (#1620260, BioRad). Membranes were blocked in 5% BSA/Tris-buffered saline (TBS) with 0.1% Tween 20 for 30 minutes. […]

Notch = conditions: 4 hours on SVEP1 vs BSA
Description: Cells were collected, resuspended in SFM, and incubated for 1 hr with gentle agitation before seeding on tissue culture wells that were precoated and blocked, as described in previous sections. Cells were collected for analysis after 4 hr of growth on the indicated substrate. Svep1SMC+/+ and Svep1SMCΔ/Δ VSMCs were collected for analysis after 72 hr of incubation in SFM to obtain basal Notch signaling.

Fibronectin, sequence (P11276 33-2477): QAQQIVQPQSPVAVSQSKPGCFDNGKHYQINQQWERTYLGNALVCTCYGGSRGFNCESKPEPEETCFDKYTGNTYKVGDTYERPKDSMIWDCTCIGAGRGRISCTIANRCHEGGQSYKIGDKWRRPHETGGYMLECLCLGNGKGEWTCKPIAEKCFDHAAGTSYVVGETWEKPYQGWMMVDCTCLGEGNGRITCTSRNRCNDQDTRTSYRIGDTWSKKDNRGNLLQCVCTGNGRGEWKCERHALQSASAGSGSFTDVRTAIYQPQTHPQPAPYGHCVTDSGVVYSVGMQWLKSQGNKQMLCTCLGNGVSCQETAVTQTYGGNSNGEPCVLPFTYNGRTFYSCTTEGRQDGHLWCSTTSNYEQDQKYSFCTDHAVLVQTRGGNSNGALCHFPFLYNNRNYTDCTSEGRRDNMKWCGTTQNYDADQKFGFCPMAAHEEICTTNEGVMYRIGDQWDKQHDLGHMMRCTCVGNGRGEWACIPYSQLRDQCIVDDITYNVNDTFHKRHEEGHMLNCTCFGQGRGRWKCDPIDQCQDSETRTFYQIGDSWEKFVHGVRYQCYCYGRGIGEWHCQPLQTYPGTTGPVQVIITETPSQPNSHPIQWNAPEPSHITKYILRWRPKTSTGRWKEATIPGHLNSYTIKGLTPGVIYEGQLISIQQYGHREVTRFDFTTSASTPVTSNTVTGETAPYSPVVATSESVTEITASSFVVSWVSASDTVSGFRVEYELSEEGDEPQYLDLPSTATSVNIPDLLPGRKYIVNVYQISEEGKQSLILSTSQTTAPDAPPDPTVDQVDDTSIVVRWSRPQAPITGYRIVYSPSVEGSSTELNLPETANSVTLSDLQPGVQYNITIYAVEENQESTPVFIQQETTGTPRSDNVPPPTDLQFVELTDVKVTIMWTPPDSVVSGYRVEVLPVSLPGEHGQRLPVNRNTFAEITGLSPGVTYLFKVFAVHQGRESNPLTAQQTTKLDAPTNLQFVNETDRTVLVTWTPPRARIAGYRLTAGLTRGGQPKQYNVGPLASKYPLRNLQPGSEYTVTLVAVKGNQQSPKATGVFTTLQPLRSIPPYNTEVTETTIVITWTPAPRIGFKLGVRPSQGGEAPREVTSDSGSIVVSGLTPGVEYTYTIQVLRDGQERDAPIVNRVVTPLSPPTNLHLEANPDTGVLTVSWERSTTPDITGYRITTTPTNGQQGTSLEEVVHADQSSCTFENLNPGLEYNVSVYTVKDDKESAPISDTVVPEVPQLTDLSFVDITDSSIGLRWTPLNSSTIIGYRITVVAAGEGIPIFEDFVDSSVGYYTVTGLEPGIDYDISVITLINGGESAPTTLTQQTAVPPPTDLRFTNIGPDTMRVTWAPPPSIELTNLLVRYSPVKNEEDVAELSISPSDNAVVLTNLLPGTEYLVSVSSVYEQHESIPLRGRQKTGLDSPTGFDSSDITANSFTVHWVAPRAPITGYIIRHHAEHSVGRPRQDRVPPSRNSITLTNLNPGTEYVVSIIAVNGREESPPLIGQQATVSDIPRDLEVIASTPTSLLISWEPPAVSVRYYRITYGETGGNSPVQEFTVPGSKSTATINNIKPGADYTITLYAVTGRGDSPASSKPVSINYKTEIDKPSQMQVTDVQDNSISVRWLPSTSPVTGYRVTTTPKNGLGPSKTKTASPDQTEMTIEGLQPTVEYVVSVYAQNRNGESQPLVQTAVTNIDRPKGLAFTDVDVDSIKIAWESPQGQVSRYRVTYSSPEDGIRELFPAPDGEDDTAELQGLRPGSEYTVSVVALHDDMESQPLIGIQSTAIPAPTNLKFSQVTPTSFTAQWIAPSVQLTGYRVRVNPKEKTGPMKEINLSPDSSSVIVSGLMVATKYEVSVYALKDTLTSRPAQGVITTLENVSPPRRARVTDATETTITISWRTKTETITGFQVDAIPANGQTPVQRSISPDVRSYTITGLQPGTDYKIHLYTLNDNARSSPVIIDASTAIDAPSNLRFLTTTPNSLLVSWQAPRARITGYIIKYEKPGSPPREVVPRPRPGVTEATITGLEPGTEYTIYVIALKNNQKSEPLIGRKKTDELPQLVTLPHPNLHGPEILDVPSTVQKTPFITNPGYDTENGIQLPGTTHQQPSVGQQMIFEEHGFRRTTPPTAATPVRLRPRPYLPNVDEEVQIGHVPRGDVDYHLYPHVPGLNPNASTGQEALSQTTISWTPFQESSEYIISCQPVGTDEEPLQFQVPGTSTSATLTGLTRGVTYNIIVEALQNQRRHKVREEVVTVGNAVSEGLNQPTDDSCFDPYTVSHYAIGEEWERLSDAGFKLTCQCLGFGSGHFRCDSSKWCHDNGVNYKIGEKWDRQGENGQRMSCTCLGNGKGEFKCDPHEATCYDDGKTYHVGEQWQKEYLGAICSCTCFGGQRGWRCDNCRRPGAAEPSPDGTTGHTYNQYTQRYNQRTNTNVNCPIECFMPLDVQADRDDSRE
Description for THP-1 cells: 2,000 cells were added to each well and incubated for 8 hr to assure complete cell adhesion. […] Adhesion assays were performed in precoated 96-well plates blocked with 100 mg ml-l BSA. Blocking conditions were empirically derived to minimize non-specific cell adhesion. After 5 min (for THP-1 cells) or 15 min (for VSMCs) incubation, non-adhered cells were removed by gently centrifuging the plates upside down. VSMCs were counted manually and THP-1 cells were counted by automated microscopy after staining cells with DAPI.

SVEP1: recombinant murine SVEP1 extracellular matrix protein with Myc and poly-histidine tag, expressed in 293F cells
phosphorylated mTOR (Ser 2448) and p70S6K Thr 389, immunoblot (mTOR; 10 or 30 minutes): activation of mTOR signaling
AKT pathway phospho-proteins (mTOR; 10 minutes of exposure): Few changes
mTOR pathway phospho-proteins (p70S6K, RPS6, 4E-BP1) (mTOR; 30 minutes of exposure): elevated
AKT signaling (AKT [1]): activated
adherence of platelets to coated coverslips (Human platelets): adhered
phosphorylation of FAK, Paxillin, Src, ERK and p38 [2]: increased phosphorylation
adhesion of VSMCs (VSMCs): adhere to SVEP1 in a dose-dependent manner
activation of AKT signaling (phospho-AKT) (AKT [3]): necessary to activate AKT signaling
adherence of HUVECs to coated protein (HUVECs): dose-dependent manner up to 20 pg/mL
pulldown of Fibronectin (Fibronectin): confirmed
pAKT, AKT pathway phospho-array (AKT [4]; 10 or 30 minutes, SVEP1 relative to BSA): Elevated pAKT
AKT signaling (AKT [4]; relative to BSA controls): activated
adhesion of THP-1 cells (THP-1 cells): adhered to SVEP1 in a dose-dependent manner
expression of canonical Notch targets Hey2 and Hes 1 (Notch): significantly increased expression

Reference: patent US20230159620A1, “COMPOSITIONS AND METHODS OF TREATMENT FOR VASCULAR DISEASES AND THROMBOSIS” (Washington University, priority 2021, published 2023)
